Assay results: ChEMBL document CHEMBL2074098, “Estradiol 17 beta-D-glucuronide is a high-affinity substrate for oatp organic anion transporter” (Am J Physiol, 1996)

B1: Solute carrier organic anion transporter family member 1A1 (Rattus norvegicus) (protein)
chain: MEETEKKIATQEGRLFSKMKVFLLSLTCACLTKSLSGVYMNSMLTQIERQFDISTSVAGLINGSFEIGNLFFIVFVSYFGTKLHRPVVIGIGCVIMGLGCLLMSLPHFFMGRYEYETTISPTGNLSSNSFLCMENRTQTLKPTQDPAECVKEMKSLMWICVMVGNIIRGIGETPIVPLGISYIEDFAKSENSPLYIGILEMGKVAGPIFGLLLGSYCAQIYVDIGSVNTDDLTITPSDTRWVGAWWIGFLVCAGVNILTSIPFFFLPKALPKKGQQENVAVTKDGKVEKYGGQAREENLGITKDFLTFMKRLFCNPIYMLFILTSVLQVNGFINKFTFLPKYLEQQYGKSTAEAIFLIGVYSLPPICLGYLIGGFIMKKFKITVKKAAYLAFCLSVFEYLLFLCHFMLTCDNAAVAGLTTSYKGVQHQLHVESKVLADCNTRCSCSTNTWDPVCGDNGVAYMSACLAGCKKFVGTGTNMVFQDCSCIQSLGNSSAVLGLCKKGPECANRLQYFLILTIIISFIYSLTAIPGYMVFLRCVKSEEKSLGVGLHTFCIRVFAGIPAPVYFGALIDRTCLHWGTLKCGQRGACRMYDINSFRHIYLGLPIALRGSSYLPAFFILILMRKFQFPGDIDSSATDHTEMMLGEKESEHTDVHGSPQVENDGELKTKL

The molecules below were run against T1, Solute carrier organic anion transporter family member 1A1 (Rattus norvegicus, UniProt P46720) (assay: TP_TRANSPORTER: inhibition of E217betaG uptake in Oatp1-expressing HeLa cells).
T1 sequence (P46720 whole entry): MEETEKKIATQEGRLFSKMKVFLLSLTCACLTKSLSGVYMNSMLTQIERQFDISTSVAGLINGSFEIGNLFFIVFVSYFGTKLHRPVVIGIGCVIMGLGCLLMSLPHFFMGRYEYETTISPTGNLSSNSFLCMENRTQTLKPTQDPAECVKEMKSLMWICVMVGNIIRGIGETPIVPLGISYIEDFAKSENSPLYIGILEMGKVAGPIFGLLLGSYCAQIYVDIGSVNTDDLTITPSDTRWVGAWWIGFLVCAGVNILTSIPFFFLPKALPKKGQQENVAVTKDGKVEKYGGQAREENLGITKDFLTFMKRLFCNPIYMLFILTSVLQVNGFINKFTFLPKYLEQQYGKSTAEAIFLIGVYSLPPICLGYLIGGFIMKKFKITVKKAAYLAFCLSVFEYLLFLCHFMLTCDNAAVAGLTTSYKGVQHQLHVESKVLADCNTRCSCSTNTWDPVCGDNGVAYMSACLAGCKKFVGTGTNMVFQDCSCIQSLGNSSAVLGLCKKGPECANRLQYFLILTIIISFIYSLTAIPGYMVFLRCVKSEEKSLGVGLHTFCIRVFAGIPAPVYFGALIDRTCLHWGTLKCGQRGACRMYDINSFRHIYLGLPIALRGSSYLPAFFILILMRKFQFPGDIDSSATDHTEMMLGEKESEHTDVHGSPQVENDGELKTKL
Type: functional, cell-based
C#C[C@]1(OS(=O)(=O)O)CC[C@H]2[C@@H]3CCc4cc(O)ccc4[C@H]3CC[C@@]21C showed a Ki of 1.3 µM.
For C[C@]12CC[C@@H]3c4ccc(O)cc4CC[C@H]3[C@@H]1CC[C@@]2(O)CC(=O)O, the Ki was > 200 µM.
For C[C@]12CC[C@@H]3c4ccc(OS(=O)(=O)O)cc4CC[C@H]3[C@@H]1CC[C@@H]2O, the Ki was 1.1 µM.
Work on C[C@]12CC[C@@H]3c4ccc(O[C@@H]5O[C@H](C(=O)O)[C@@H](O)[C@H](O)[C@H]5O)cc4CC[C@H]3[C@@H]1CC[C@@H]2O yielded a Ki of 9.7 µM.
With C[C@]12CC[C@@H](OS(=O)(=O)O)C[C@@H]1CC[C@@H]1[C@@H]2CC[C@]2(C)C(=O)CC[C@@H]12 the Ki was 2.4 µM.
C[C@]12CC[C@H]3[C@@H](CCC4=CC(=O)CC[C@@]43C)[C@@H]1CC[C@@H]2O[C@@H]1O[C@H](C(=O)O)[C@@H](O)[C@H](O)[C@H]1O was tested, and the Ki was 3.8 µM.
Work on C[C@]12C[C@H](O)[C@H]3[C@@H](CCC4=CC(=O)CC[C@@]43C)[C@@H]1CC[C@@H]2C(=O)COS(=O)(=O)O yielded a Ki of 1.6 µM.
Molecule CC(=O)O[C@@H]1CC[C@@]2(C)[C@@H](CC[C@@H]3[C@@H]2CC[C@]2(C)C(=O)CC[C@@H]32)C1 [ANDROSTERONE ACETATE] has a Ki of 76.2 µM.
Work on C[C@]12CC[C@@H](O)C[C@@H]1CC[C@@H]1[C@@H]2CC[C@]2(C)C(=O)CC[C@@H]12 [ANDROSTERONE] yielded a Ki of 10.6 µM.
C[C@]12C[C@H](O)[C@H]3[C@@H](CCC4=CC(=O)CC[C@@]43C)[C@@H]1CC[C@@H]2C(=O)CO [CORTICOSTERONE] gave a Ki of 5.3 µM.
Molecule C[C@]12CC[C@@H]3c4ccc(O)cc4CC[C@H]3[C@@H]1CC[C@@H]2O [ESTRADIOL] has a Ki of 4.7 µM.
C[C@]12CC[C@@H]3c4ccc(O)cc4CC[C@H]3[C@@H]1C[C@@H](O)[C@@H]2O [ESTRIOL] showed a Ki of 9.8 µM.
C[C@]12CC[C@@H]3c4ccc(OS(=O)(=O)O)cc4CC[C@H]3[C@@H]1CCC2=O [ESTRONE SULFURIC ACID] showed a Ki of 1.3 µM.
In the case of C[C@]12CC[C@@H]3c4ccc(O)cc4CC[C@H]3[C@@H]1CCC2=O [ESTRONE], the Ki is reported as 15.7 µM.
C[C@]12CC[C@H]3[C@@H](CCC4=CC(=O)CC[C@@]43C)[C@@H]1CC[C@@H]2O [TESTOSTERONE] showed a Ki of 5.4 µM.

These molecules were tested on C[C@]12CC[C@@H]3c4ccc(O)cc4CC[C@H]3[C@@H]1CC[C@@H]2O[C@@H]1O[C@H](C(=O)O)[C@@H](O)[C@H](O)[C@H]1O (assay: TP_TRANSPORTER: uptake in Oatp1-expressing HeLa cells).
Type: functional, cell-based
B1 showed a Km of 3.2 µM.
